In US20250122218A1, “MODULATORS OF CYSTIC FIBROSIS TRANSMEMBRANE CONDUCTANCE REGULATOR” (Vertex Pharmaceuticals Incorporated, priority 2022, published 2025):
pEC50: −log10 of the molar value.

What follows are molecules tested against T1, CFTR in F508del/MF-HBE cells (Homo sapiens, UniProt P13569, DEL508-508) (assay: Ussing chamber assay of CFTR-mediated short-circuit currents (identification of potentiator compounds)). Conditions: potentiator incubated 18-24 hours at 37° C. in combination with 10 μM corrector, in the presence of 20% human serum, CFTR-mediated ISC.
T1 construct: human bronchial epithelial (HBE) cells derived from CF subjects heterozygous for F508del and a minimal function CFTR mutation; endogenous in cells; host or cells: primary human bronchial epithelial cells from CF subjects (F508del/MF-HBE)
Format: cell-based
Procedure: Ussing chamber experiments were performed using human bronchial epithelial (HBE) cells derived from CF subjects heterozygous for F508del and a minimal function CFTR mutation (F508del/MF-HBE) and cultured as previously described (Neuberger T, Burton B, Clark H, Van Goor F; Methods Mol. Biol. 2011:741:39-54). After four days the apical media was removed, and the cells were grown at an air liquid interface for >14 days prior to use.
To isolate the CFTR-mediated short-circuit (ISC) current, F508del/MF-HBE grown on Costar® Snapwell™ cell culture inserts were mounted in an Ussing chamber and the transepithelial ISC was measured under voltage-clamp recording conditions (Vhold=0 mV) at 37° C. The basolateral solution contained (in mM) 145 NaCl, 0.83 K2HPO4, 3.3 KH2PO4, 1.2 MgCl2, 1.2 CaCl2), 10 Glucose, 10 HEPES (pH adjusted to 7.4 with NaOH) and the apical solution contained (in mM) 145 NaGluconate, 1.2 MgCl2, 1.2 CaCl2), 10 glucose, 10 HEPES (pH adjusted to 7.4 with NaOH) and 30 μM amiloride to block the epithelial sodium channel. Forskolin (20 μM) was added to the apical surface to activate CFTR, followed by apical addition of a CFTR inhibitor cocktail consisting of BPO, GlyH-101 and CFTR inhibitor 172 (each at 20 μM final assay concentration) to specifically isolate CFTR currents. The CFTR-mediated ISC (μA/cm^2) for each condition was determined from the peak forskolin response to the steady-state current following inhibition.
The activity of the CFTR potentiator compounds on the CFTR-mediated ISC was determined in Ussing chamber studies as described above. The F508del/MF-HBE cell cultures were incubated with the potentiator compounds at a range of concentrations in combination with 10 μM (14S)-8-[3-(2-{dispiro[2.0.2.1]heptan-7-yl}ethoxy)-1H-pyrazol-1-yl]-12,12-dimethyl-2λ^6-thia-3,9,11,18,23-pentaazatetracyclo[17.3.1.111,14.05,10]tetracosa-1(22),5,7,9,19(23),20-hexaene-2,2,4-trione for 18-24 hours at 37° C. and in the presence of 20% human serum. The concentration of potentiator compounds and (14S)-8-[3-(2-{dispiro[2.0.2.1]heptan-7-yl}ethoxy)-1H-pyrazol-1-yl]-12,12-dimethyl-2λ^6-thia-3,9,11,18,23-pentaazatetracyclo[17.3.1.111,14.05,10]tetracosa-1(22),5,7,9,19(23),20-hexaene-2,2,4-trione used during the 18-24 hours incubations was kept constant throughout the Ussing chamber measurement of the CFTR-mediated ISC to ensure compounds were present throughout the entire experiment. The efficacy and potency of the putative F508del potentiators was compared to that of the known potentiator, ivacaftor (N-[2,4-bis(1,1-dimethylethyl)-5-hydroxyphenyl]-1,4-dihydro-4-oxoquinoline-3-carboxamide).

T1 sequence (P13569 with tags, fused parts or gaps DEL508-508): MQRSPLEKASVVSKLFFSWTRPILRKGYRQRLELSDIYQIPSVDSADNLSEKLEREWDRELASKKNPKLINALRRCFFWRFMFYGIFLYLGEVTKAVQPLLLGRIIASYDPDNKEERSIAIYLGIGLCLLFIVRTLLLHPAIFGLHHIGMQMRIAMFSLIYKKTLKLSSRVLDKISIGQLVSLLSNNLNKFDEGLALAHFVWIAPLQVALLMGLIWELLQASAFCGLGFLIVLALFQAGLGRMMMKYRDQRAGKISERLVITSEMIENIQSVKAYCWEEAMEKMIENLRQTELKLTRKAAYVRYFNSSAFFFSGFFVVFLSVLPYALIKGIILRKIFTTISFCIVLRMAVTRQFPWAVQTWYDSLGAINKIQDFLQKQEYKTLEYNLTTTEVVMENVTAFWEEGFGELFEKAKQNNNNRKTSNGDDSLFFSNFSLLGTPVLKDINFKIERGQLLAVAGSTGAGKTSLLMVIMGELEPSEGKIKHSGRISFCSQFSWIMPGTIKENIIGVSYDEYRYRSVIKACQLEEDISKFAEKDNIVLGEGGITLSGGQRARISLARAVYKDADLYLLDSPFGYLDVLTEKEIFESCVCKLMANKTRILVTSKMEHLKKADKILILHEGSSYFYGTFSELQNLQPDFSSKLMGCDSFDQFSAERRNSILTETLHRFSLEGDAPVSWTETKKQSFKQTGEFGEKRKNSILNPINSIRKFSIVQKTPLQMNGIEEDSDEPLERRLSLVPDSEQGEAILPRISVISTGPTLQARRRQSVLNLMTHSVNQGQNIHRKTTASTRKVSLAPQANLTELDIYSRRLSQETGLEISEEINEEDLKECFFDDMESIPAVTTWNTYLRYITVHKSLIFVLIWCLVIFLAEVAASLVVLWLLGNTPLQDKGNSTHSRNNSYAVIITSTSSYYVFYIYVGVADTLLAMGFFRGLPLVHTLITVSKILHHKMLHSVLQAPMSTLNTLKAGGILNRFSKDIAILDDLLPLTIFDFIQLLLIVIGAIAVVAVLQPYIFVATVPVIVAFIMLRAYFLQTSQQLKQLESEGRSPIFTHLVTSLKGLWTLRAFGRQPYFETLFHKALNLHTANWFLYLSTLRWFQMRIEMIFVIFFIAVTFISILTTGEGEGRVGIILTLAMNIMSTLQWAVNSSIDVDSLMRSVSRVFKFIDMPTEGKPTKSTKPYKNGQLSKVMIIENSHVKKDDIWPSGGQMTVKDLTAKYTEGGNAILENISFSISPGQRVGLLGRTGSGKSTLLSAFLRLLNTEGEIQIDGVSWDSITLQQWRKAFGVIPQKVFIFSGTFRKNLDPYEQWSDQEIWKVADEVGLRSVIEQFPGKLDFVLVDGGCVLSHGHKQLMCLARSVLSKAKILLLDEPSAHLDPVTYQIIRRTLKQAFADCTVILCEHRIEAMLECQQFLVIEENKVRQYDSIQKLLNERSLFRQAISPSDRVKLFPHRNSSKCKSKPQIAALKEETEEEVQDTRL

Compound	pEC50
CC(=O)N1CCCCCC(O)(C(F)(F)F)C2=NN=C(O2)c2nc(c(C(F)(F)F)cc2N)C1 (single isomer, unassigned) [Compound 21, 1-[17-amino-6-hydroxy-6,15-bis(trifluoromethyl)-19-oxa-3,4,12,18-tetrazatricyclo[12.3.1.12,5]nonadeca-1(18),2,4,14,16-pentaen-12-yl]ethanone]	< 6.00
Nc1cc(C(F)(F)F)c2nc1-c1nnc(o1)C(O)(C(F)(F)F)CCCCCN(C(=O)C1CCC1)C2 (single isomer, unassigned) [Compound 23, [17-amino-6-hydroxy-6,15-bis(trifluoromethyl)-19-oxa-3,4,12,18-tetrazatricyclo[12.3.1.12,5]nonadeca-1(18),2,4,14,16-pentaen-12-yl]-cyclobutyl-methanone]	< 6.00
Nc1cc(C(F)(F)F)c2nc1-c1nnc(o1)C(O)(C(F)(F)F)CCCCCCC2(O)C(F)(F)F (single isomer, unassigned) [Compound 25, 17-amino-6,13,15-tris(trifluoromethyl)-19-oxa-3,4,18-triazatricyclo[12.3.1.12,5]nonadeca-1(18),2,4,14,16-pentaene-6,13-diol]	< 6.00
Nc1cc(C(F)(F)F)c2nc1-c1nnc(o1)C(O)(C(F)(F)F)CCCCCCC2(O)C(F)(F)F (single isomer, unassigned) [Compound 28, 17-amino-6,13,15-tris(trifluoromethyl)-19-oxa-3,4,18-triazatricyclo[12.3.1.12,5]nonadeca-1(18),2,4,14,16-pentaene-6,13-diol]	< 6.00
Nc1cc(C(F)(F)F)c2nc1-c1nnc(o1)C(O)(C(F)(F)F)CCCCCCC1=NN=C2O1 (single isomer, unassigned) [Compound 33, 20-amino-6,18-bis(trifluoromethyl)-22,23-dioxa-3,4,14,15,21-pentaazatetracyclo[15.3.1.12,5.113,16]tricosa-1(21),2,4,13,15,17,19-heptaen-6-ol]	< 6.00
Nc1cc(C(F)(F)F)c2nc1-c1nnc(o1)C(O)(C(F)(F)F)CCC(=O)CCCC2=O (single isomer, unassigned) [Compound 35, 17-amino-6-hydroxy-6,15-bis(trifluoromethyl)-19-oxa-3,4,18-triazatricyclo[12.3.1.12,5]nonadeca-1(18),2,4,14,16-pentaene-9,13-dione]	< 6.00
Nc1cc(C(F)(F)F)c2nc1-c1nnc(o1)C(O)(C(F)(F)F)CCCC(=O)CCC2=O (single isomer, unassigned) [Compound 36, 17-amino-6-hydroxy-6,15-bis(trifluoromethyl)-19-oxa-3,4,18-triazatricyclo[12.3.1.12,5]nonadeca-1(18),2,4,14,16-pentaene-10,13-dione]	< 6.00
Nc1cc(C(F)(F)F)c2nc1-c1nnc(o1)C(O)(C(F)(F)F)CCCC(=O)CCC2=O (single isomer, unassigned) [Compound 37, 17-amino-6-hydroxy-6,15-bis(trifluoromethyl)-19-oxa-3,4,18-triazatricyclo[12.3.1.12,5]nonadeca-1(18),2,4,14,16-pentaene-10,13-dione]	< 6.00
CC1CCCCC[C@](O)(C(F)(F)F)C2=NN=C(O2)c2nc(c(C(F)(F)F)cc2N)C1 (single isomer, unassigned) [Compound 55]	> 6.30
CC1CCCCC[C@](O)(C(F)(F)F)C2=NN=C(O2)c2nc(c(C(F)(F)F)cc2N)C1 (single isomer, unassigned) [Compound 56]	> 6.30
Nc1cc(C(F)(F)F)c2nc1-c1nnc(o1)C(O)(C(F)(F)F)c1cc(ccc1F)CCCCC2=O (single isomer, unassigned) [Compound 57, 20-amino-8-fluoro-6-hydroxy-6,18-bis(trifluoromethyl)-23-oxa-3,4,21-triazatetracyclo[15.3.1.12,5.17,11]tricosa-1(21),2,4,7(22),8,10,17,19-octaen-16-one]	> 6.30
Nc1cc(C(F)(F)F)c2nc1-c1nnc(o1)C(O)(C(F)(F)F)c1cc(ccc1F)CCCCC2=O (single isomer, unassigned) [Compound 58, 20-amino-8-fluoro-6-hydroxy-6,18-bis(trifluoromethyl)-23-oxa-3,4,21-triazatetracyclo[15.3.1.12,5.17,11]tricosa-1(21),2,4,7(22),8,10,17,19-octaen-16-one]	6.00 to 6.30
Nc1cc(C(F)(F)F)c2nc1-c1nnc(o1)C(O)(C(F)(F)F)c1cc(ccc1F)C=CCCC2=O (single isomer, unassigned) [Compound 59, 20-amino-8-fluoro-6-hydroxy-6,18-bis(trifluoromethyl)-23-oxa-3,4,21-triazatetracyclo[15.3.1.12,5.17,11]tricosa-1(21),2,4,7(22),8,10,12,17,19-nonaen-16-one]	< 6.00
Nc1cc(C(F)(F)F)c2nc1-c1nnc(o1)C(O)(C(F)(F)F)c1cc(ccc1F)C=CCCC2=O (single isomer, unassigned) [Compound 60, 20-amino-8-fluoro-6-hydroxy-6,18-bis(trifluoromethyl)-23-oxa-3,4,21-triazatetracyclo[15.3.1.12,5.17,11]tricosa-1(21),2,4,7(22),8,10,12,17,19-nonaen-16-one]	> 6.30

The next lines start with the values.

pEC50	Compound
> 6.30	CC(=O)N1CCCCCC(O)(C(F)(F)F)C2=NN=C(O2)c2nc(c(C(F)(F)F)cc2N)C1 (single isomer, unassigned) [Compound 20, 1-[17-amino-6-hydroxy-6,15-bis(trifluoromethyl)-19-oxa-3,4,12,18-tetrazatricyclo[12.3.1.12,5]nonadeca-1(18),2,4,14,16-pentaen-12-yl]ethanone]
> 6.30	Nc1cc(C(F)(F)F)c2nc1-c1nnc(o1)C(O)(C(F)(F)F)CCCCCN(C(=O)C1CCC1)C2 (single isomer, unassigned) [Compound 22, [17-amino-6-hydroxy-6,15-bis(trifluoromethyl)-19-oxa-3,4,12,18-tetrazatricyclo[12.3.1.12,5]nonadeca-1(18),2,4,14,16-pentaen-12-yl]-cyclobutyl-methanone]
> 6.30	Nc1cc(C(F)(F)F)c2nc1-c1nnc(o1)C(O)(C(F)(F)F)CCCCCCC2(O)C(F)(F)F (single isomer, unassigned) [Compound 26, 17-amino-6,13,15-tris(trifluoromethyl)-19-oxa-3,4,18-triazatricyclo[12.3.1.12,5]nonadeca-1(18),2,4,14,16-pentaene-6,13-diol]
> 6.30	Nc1cc(C(F)(F)F)c2nc1-c1nnc(o1)C(O)(C(F)(F)F)CCCCCCC2(O)C(F)(F)F (single isomer, unassigned) [Compound 27, 17-amino-6,13,15-tris(trifluoromethyl)-19-oxa-3,4,18-triazatricyclo[12.3.1.12,5]nonadeca-1(18),2,4,14,16-pentaene-6,13-diol]
> 6.30	CC(C)(C)ON=C1CCCCCC[C@](O)(C(F)(F)F)C2=NN=C(O2)c2nc1c(C(F)(F)F)cc2N (single isomer, unassigned) [Compound 29]
> 6.30	CC(C)(C)ON=C1CCCCCC[C@](O)(C(F)(F)F)C2=NN=C(O2)c2nc1c(C(F)(F)F)cc2N (single isomer, unassigned) [Compound 30]
> 6.30	Nc1cc(C(F)(F)F)c2nc1-c1nnc(o1)[C@@](O)(C(F)(F)F)CCCCCCC2=NO (single isomer, unassigned) [Compound 31]
> 6.30	Nc1cc(C(F)(F)F)c2nc1-c1nnc(o1)C(O)(C(F)(F)F)CCCCCCC1=NN=C2O1 (single isomer, unassigned) [Compound 32, 20-amino-6,18-bis(trifluoromethyl)-22,23-dioxa-3,4,14,15,21-pentaazatetracyclo[15.3.1.12,5.113,16]tricosa-1(21),2,4,13,15,17,19-heptaen-6-ol]
> 6.30	Nc1cc(C(F)(F)F)c2nc1-c1nnc(o1)C(O)(C(F)(F)F)CCC(=O)CCCC2=O (single isomer, unassigned) [Compound 34, 17-amino-6-hydroxy-6,15-bis(trifluoromethyl)-19-oxa-3,4,18-triazatricyclo[12.3.1.12,5]nonadeca-1(18),2,4,14,16-pentaene-9,13-dione]
